The results in this text go back to ChEMBL document CHEMBL6153034, “Synthesis of dolutegravir derivatives modified by 1,2,3-triazole structure and their anti-inflammatory activity in LPS-induced BV2 cells” (Bioorg Med Chem Lett, 2025).

The source made the active and inactive calls. No cut-off for these calls is given here.

Data set [1] can be described thus: Acute toxicity in female Kunming mouse assessed as effect on organ coefficient of liver at 250 mg/kg administered via gavage. It counts as organism-based. The settings on record: in vivo, po.
Data set [2] in a line: Acute toxicity in male Kunming mouse assessed as effect on organ coefficient of lung at 250 mg/kg administered via gavage. It counts as organism-based. Conditions: in vivo, po.
The nature of data set [3]: Acute toxicity in female Kunming mouse assessed as histopathological changes in spleen at 250 mg/kg administered via gavage by H and E staining based analysis. The class given is organism-based. The settings on record: in vivo, po.
The nature of data set [4]: Acute toxicity in male Kunming mouse assessed as histopathological changes in lung at 250 mg/kg administered via gavage by H and E staining based analysis. It counts as organism-based. Conditions: in vivo, po.
The nature of data set [5]: Acute toxicity in female Kunming mouse assessed as histopathological changes in lung at 250 mg/kg administered via gavage by H and E staining based analysis. The class given is organism-based. Conditions: in vivo, po.
Data set [6] in a line: Acute toxicity in male Kunming mouse assessed as effect on organ coefficient of heart at 250 mg/kg administered via gavage. It counts as organism-based. The settings on record: in vivo, po.
Data set [7] is described as follows: Cytotoxicity against mouse BV-2 cells assessed as cell viability at 1 uM by MTT assay relative to control. It counts as toxicity, cell-based. Conditions: read-out: Activity. A general note: Tetrazolium dyes change colour on reduction, which living cells bring about.
Data set [8] can be described thus: Acute toxicity in male Kunming mouse assessed as effect on organ coefficient of spleen at 250 mg/kg administered via gavage. It counts as organism-based. The settings on record: in vivo, po.
Data set [9] relates to BV-2. As to the kind of experiment: Inhibition of LPS-induced nuclear translocation of p-STAT1 in mouse BV-2 cells at 10 uM preincubated for 2 hrs followed LPS addition and measured after 3 hrs by Western blot analysis. The class given is functional, cell-based. The settings on record: time 5.0 hrs. (In general: A western blot detects proteins with antibodies after separation by electrophoresis.)

Data set [10] has as its system BV-2. Kind of data set: Antiinflammatory activity in LPS induced mouse BV-2 cells assessed as downregulation of TNF-alpha mRNA expression level preincubated for 2 hrs followed by LPS addition and measured after 24 hrs by qRT-PCR analysis. Conditions: dose 5-10 µM, time 26.0 hrs. The class given is functional, cell-based. On the technique in general: Quantitative PCR measures a nucleic acid by following its amplification.

Data set [11] relates to BV-2. Kind of data set: Antiinflammatory activity in LPS induced mouse BV-2 cells assessed as NO production at 1 uM by Griess reagent based assay relative to control.
Data set [12] concerns BV-2. Kind of data set: Inhibition of LPS-induced nuclear translocation of p-STAT1 in mouse BV-2 cells at 10 uM preincubated for 2 hrs followed LPS addition and measured after 3 hrs by DAPI staining based immunofluorescence assay. The class given is functional, cell-based. Conditions: time 5.0 hrs.
The nature of data set [13]: Acute toxicity in female Kunming mouse assessed as histopathological changes in liver at 250 mg/kg administered via gavage by H and E staining based analysis. It counts as organism-based. Conditions: in vivo, po.
In data set [14] the test system is BV-2. As to the kind of experiment: Antiinflammatory activity in LPS induced mouse BV-2 cells assessed as inhibition of NO production by Griess reagent based assay. The class given is functional, cell-based.
Data set [15] is described as follows: Acute toxicity in female Kunming mouse assessed as effect on organ coefficient of lung at 250 mg/kg administered via gavage. It counts as organism-based. Conditions: in vivo, po.
Data set [16] is described as follows: Acute toxicity in male Kunming mouse assessed as increase in GPT level in blood at 250 mg/kg administered via gavage by biochemical analysis. It counts as organism-based. The settings on record: in vivo, po.
The target of data set [17] is T1, Signal transducer and activator of transcription 1 (Mus musculus) (UniProt P42225).
T1 sequence (whole entry): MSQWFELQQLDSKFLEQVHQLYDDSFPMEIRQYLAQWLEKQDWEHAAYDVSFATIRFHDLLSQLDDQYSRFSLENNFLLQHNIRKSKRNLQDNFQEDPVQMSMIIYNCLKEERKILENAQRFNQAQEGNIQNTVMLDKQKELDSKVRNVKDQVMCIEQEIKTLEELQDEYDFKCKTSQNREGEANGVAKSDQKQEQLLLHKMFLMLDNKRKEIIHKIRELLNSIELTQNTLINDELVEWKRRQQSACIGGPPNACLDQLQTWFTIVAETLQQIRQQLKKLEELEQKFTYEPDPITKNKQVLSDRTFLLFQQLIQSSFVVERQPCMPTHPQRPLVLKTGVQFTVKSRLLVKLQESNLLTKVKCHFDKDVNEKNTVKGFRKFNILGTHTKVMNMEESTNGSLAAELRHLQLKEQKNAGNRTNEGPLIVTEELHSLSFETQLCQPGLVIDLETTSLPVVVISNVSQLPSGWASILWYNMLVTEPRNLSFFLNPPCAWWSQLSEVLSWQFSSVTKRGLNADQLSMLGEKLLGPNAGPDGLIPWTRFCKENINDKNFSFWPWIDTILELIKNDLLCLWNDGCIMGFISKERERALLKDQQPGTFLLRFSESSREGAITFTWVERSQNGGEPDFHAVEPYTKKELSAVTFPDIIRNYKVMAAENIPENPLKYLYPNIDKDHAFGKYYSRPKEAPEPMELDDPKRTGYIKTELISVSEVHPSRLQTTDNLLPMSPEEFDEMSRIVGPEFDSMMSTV
Kind of data set: Inhibition of STAT1 phosphorylation at Tyr701 residue in LPS-induced mouse BV-2 cells at 5 to 10 uM preincubated for 2 hrs followed by LPS addition and measured after 3 hrs by Western blot analysis. It counts as cell-based. The settings on record: dose 5-10 µM, time 5.0 hrs.

Take `COc1c2n(cc(C(=O)Nc3cccc(-c4cn(-c5ccccc5Cl)nn4)c3)c1=O)C[C@@H]1OCC[C@@H](C)N1C2=O`: the Activity result in [1], in [2], in [3], in data set [4], in data set [5] and in data set [6] was “Non-toxic” in each case. Moreover, the Activity entry is “Non-toxic” in [8]; “Dose-dependent-effect” in data set [10]; “Non-toxic” in [13]; “Non-toxic” in data set [15]; “Toxic” in data set [16]. The viability at 1 µM in data set [7] was found to be 88%. Besides, the inhibition entry in data set [9], in [12] and in [17] was “Active” each time. In addition, the level, % of control at 1 µM in data set [11] stood at 71%. Besides, in [14], the half-maximal inhibitory concentration (IC50) was determined as 4.45 µM.

By IC50 is commonly meant the concentration that inhibits the measured activity by half.
